The results in this text go back to ChEMBL document CHEMBL5034021, “Monomeric, Dimeric, and Trimeric Tropane Alkaloids from Pellacalyx saccardianus” (J Nat Prod, 2021).

Data set [1] deals with Trachea. Nature of the data set: Myorelaxant effect in Sprague-Dawley rat tracheal ring assessed as […] relaxation of carbachol-induced smooth muscle contraction by organ bath assay. Format: functional, tissue-based.
The subject of data set [2] is Trachea. Nature of the data set: Myorelaxant effect in Sprague-Dawley rat tracheal ring assessed as relaxation of carbachol-induced smooth muscle contraction by organ bath assay. It is filed as functional.
Data set [3] has as its system MRC5. The experiment in a line: Cytotoxicity against human MRC5 assessed as cell viability measured for 72 hrs by cell titer glo luminescent assay. It is filed as cell-based. The conditions noted are these: for pIC50: Homo sapiens, MRC5, 72 h. For orientation: In ATP-based viability assays light output follows the ATP content of the culture.
For data set [4], the system named is SW1990. The experiment in a line: Cytotoxicity against human SW1990 assessed as cell viability measured for 72 hrs by cell titer glo luminescent assay. Format: functional, cell-based. The conditions noted are these: for pIC50: SW1990, 72 h.
The subject of data set [5] is BXPC-3. The experiment in a line: Cytotoxicity against human BXPC-3 assessed as cell viability measured for 72 hrs by cell titer glo luminescent assay. The following applies: for pIC50: BXPC-3, 72 h. Format: functional, cell-based.
Data set [6] deals with ASPC1. The experiment in a line: Cytotoxicity against human ASPC1 assessed as cell viability measured for 72 hrs by cell titer glo luminescent assay. Format: functional, cell-based. The following applies: for pIC50: ASPC1, 72 h.
For data set [7], the system named is PANC-1. Nature of the data set: Cytotoxicity against human PANC-1 assessed as cell viability measured for 72 hrs by cell titer glo luminescent assay. It is filed as functional, cell-based. The following applies: for pIC50: PANC-1, 72 h.

pEC50, pIC50: −log10 of the molar value. Activity calls are given as the source filed them. No cut-off for these calls is given here. Where only a bound is given, the exact number is not on record here.

Consider `O=C(OC1CC2CCC(C1)N2)c1ccccc1` (configuration not stated), for which the pEC50 (commonly the EC50 on a negative log10 scale, so that one unit is a factor of ten) in data set [1] was 5.11. Further, in data set [2], the Emax (as a rule, the size of the effect at its maximum, as opposed to the concentration needed) came to 101%.

For the compound `O=C(/C=C/c1ccccc1)OC1CC2CCC(C1)N2` (configuration not stated), the Activity result in data set [3] (human, mrc5, 72 h, time 72 hrs) is “Non-Toxic”. Moreover, the outcome in data set [4], in data set [5], in data set [6] and in data set [7] was inactive. In data set [1], the pEC50 was 6.36. Moreover, the maximal response (Emax) in data set [2] turned out to be 82.5%.

For the compound `O=CN1C2CCC1CC(OC(=O)c1ccccc1)C2` (configuration not stated), the negative-log EC50 (pEC50) in data set [1] is 5.44. In data set [2], the Emax was found to be 97%.

For `O=C(/C=C/c1ccccc1)OC1CC2CCC(C1)N2C(CC(=O)OC1CC2CCC(C1)N2)c1ccccc1` (racemic), the pIC50 (commonly −log10 of the IC50, conventionally taken in molar units) in data set [3] was 5.01; in data set [4] it was below 5.00; in data set [5] it was 5.34; in data set [6] it was 5.22; in data set [7], 4.97. The pEC50 in data set [1] was 4.98. Besides, the Emax in data set [2] was 71.9%.

Regarding `CN1[C@@H]2CC[C@H]1C[C@@H](OC(=O)C(CO)c1ccccc1)C2` (mixture of isomers) [ATROPINE], the pEC50 in data set [1] is 9.01. Besides, in data set [2], the Emax amounted to 112%.

`O=C(/C=C/c1ccccc1)OC1CC2CCC(C1)N2[C@H](CC(=O)OC1CC2CCC(C1)N2)c1ccccc1` (some centres not stated): the negative-log IC50 (pIC50) in data set [3] was below 5.00; in data set [4] it was below 5.00; in data set [5], 5.18; in data set [6] it was 5.11; in data set [7] it was 5.00.

Turning to `Nc1ccn([C@@H]2O[C@H](CO)[C@@H](O)C2(F)F)c(=O)n1` [GEMCITABINE], the pIC50 in data set [3] was 4.45; in data set [4], 4.60; in data set [5] it was 4.59; in data set [6], 4.54; in data set [7] it was 4.52.

In the case of `O=C(/C=C/c1ccccc1)OC1CC2CCC(C1)N2C(=O)CCc1ccc(O)cc1` (configuration not stated), the pEC50 in data set [1] is 4.62. Also, the maximum response (Emax) in data set [2] came out at 106%.

Take `O=C(/C=C/c1ccccc1)OC1CC2CCC(C1)N2C(CC(=O)OC1CC2CCC(C1)N2C(CC(=O)OC1CC2CCC(C1)N2)c1ccccc1)c1ccccc1` (racemic): the pIC50 is 5.38 in data set [3]; 5.28 in data set [4]; 5.66 in data set [5]; 5.47 in data set [6]; 5.96 in data set [7].

`O=C(/C=C/c1ccccc1)OC1CC2CCC(C1)N2[C@@H](CC(=O)OC1CC2CCC(C1)N2)c1ccccc1` (some centres not stated): the pIC50 is 5.08 in data set [3]; below 5.00 in data set [4]; 5.26 in data set [5]; 5.24 in data set [6]; 4.98 in data set [7].
